Data as given in patent US12186353B2, “Method of reducing neuronal microtubule binding protein Tau (Tau) levels” (ADAERATA, LIMITED PARTNERSHIP, priority 2018, dated 2025).
Peptide text beside a SMILES is read from it. * marks the point of attachment. Cbz = O=C(OCc1ccccc1)*

B1: Numb-65: 65 kDa Numb isoform with short PTB domain and short PRR; human isoform 4 (SEQ ID NO: 7) (protein)
chain: MNKLRQSFRRKKDVYVPEASRPHQWQTDEEGVRTGKCSFPVKYLGHVEVDESRGMHICEDAVKRLKATGKKAVKAVLWVSADGLRVVDEKTKDLIVDQTIEKVSFCAPDRNFDRAFSYICRDGTTRRWICHCFMAVKDTGERLSHAVGCAFAACLERKQKREKECGVTATFDASRTTFTREGSFRVTTATEQAEREEIMKQMQDAKKAETDKIVVGSSVAPGNTAPSPSSPTSPTSDATTSLEMNNPHAIPRRHAPIEQLARQGSFRGFPALSQKMSPFKRQLSLRINELPSTMQRKTDFPIKNAVPEVEGEAESISSLCSQITNAFSTPEDPFSSAPMTKPVTVVAPQSPTFQGTEWGQSSGAASPGLFQAGHRRTPSEADRWLEEVSKSVRAQQPQASAAPLQPVLQPPPPTAISQPASPFQGNAFLTSQPVPVGVVPALQPAFVPAQSYPVANGMPYPAPNVPVVGITPSQMVANVFGTAGHPQAAHPHQSPSLVRQQTFPHYEASSATTSPFFKPPAQHLNGSAAFNGVDDGRLASADRHTEVPTGTCPVDPFEAQWAALENKSKQRTNPSPTNPFSSDLQKTFEIEL
modifications: homo sapiens
B2: Numb-71: 71 kDa Numb isoform with short PTB domain and long PRR; human isoform 3 (SEQ ID NO: 6) (protein)
chain: MNKLRQSFRRKKDVYVPEASRPHQWQTDEEGVRTGKCSFPVKYLGHVEVDESRGMHICEDAVKRLKATGKKAVKAVLWVSADGLRVVDEKTKDLIVDQTIEKVSFCAPDRNFDRAFSYICRDGTTRRWICHCFMAVKDTGERLSHAVGCAFAACLERKQKREKECGVTATFDASRTTFTREGSFRVTTATEQAEREEIMKQMQDAKKAETDKIVVGSSVAPGNTAPSPSSPTSPTSDATTSLEMNNPHAIPRRHAPIEQLARQGSFRGFPALSQKMSPFKRQLSLRINELPSTMQRKTDFPIKNAVPEVEGEAESISSLCSQITNAFSTPEDPFSSAPMTKPVTVVAPQSPTFQANGTDSAFHVLAKPAHTALAPVAMPVRETNPWAHAPDAANKEIAATCSGTEWGQSSGAASPGLFQAGHRRTPSEADRWLEEVSKSVRAQQPQASAAPLQPVLQPPPPTAISQPASPFQGNAFLTSQPVPVGVVPALQPAFVPAQSYPVANGMPYPAPNVPVVGITPSQMVANVFGTAGHPQAAHPHQSPSLVRQQTFPHYEASSATTSPFFKPPAQHLNGSAAFNGVDDGRLASADRHTEVPTGTCPVDPFEAQWAALENKSKQRTNPSPTNPFSSDLQKTFEIEL
modifications: homo sapiens
B3: Numb-66: 66 kDa Numb isoform with long PTB domain and short PRR; human isoform 2 (SEQ ID NO: 3) (protein)
chain: MNKLRQSFRRKKDVYVPEASRPHQWQTDEEGVRTGKCSFPVKYLGHVEVDESRGMHICEDAVKRLKAERKFFKGFFGKTGKKAVKAVLWVSADGLRVVDEKTKDLIVDQTIEKVSFCAPDRNFDRAFSYICRDGTTRRWICHCFMAVKDTGERLSHAVGCAFAACLERKQKREKECGVTATFDASRTTFTREGSFRVTTATEQAEREEIMKQMQDAKKAETDKIVVGSSVAPGNTAPSPSSPTSPTSDATTSLEMNNPHAIPRRHAPIEQLARQGSFRGFPALSQKMSPFKRQLSLRINELPSTMQRKTDFPIKNAVPEVEGEAESISSLCSQITNAFSTPEDPFSSAPMTKPVTVVAPQSPTFQGTEWGQSSGAASPGLFQAGHRRTPSEADRWLEEVSKSVRAQQPQASAAPLQPVLQPPPPTAISQPASPFQGNAFLTSQPVPVGVVPALQPAFVPAQSYPVANGMPYPAPNVPVVGITPSQMVANVFGTAGHPQAAHPHQSPSLVRQQTFPHYEASSATTSPFFKPPAQHLNGSAAFNGVDDGRLASADRHTEVPTGTCPVDPFEAQWAALENKSKQRTNPSPTNPFSSDLQKTFEIEL
modifications: homo sapiens

How the values were obtained:
[1] = tested on: RGCs; assay: RGC survival after intravitreal NMDA in Numb cKO and control mice; format: in vivo, mouse; conditions: sublethal doses of NMDA in the eyes, 3 days later, Numb cKO mice compared to control
Protocol: FIGS. 5A-C: Down regulation of Tau in Numb cKO RGCs rescues survival to control levels after NMDA-mediated excitotoxicity. FIG. 5A. Immunostaining for Brn3b on retina flat mounts in control and cKO 5-month-old mice 3 days after injection of saline (left panels, FIG. 5A) or NMDA (10 mM; right panels FIG. 5A). Images were taken in the ganglion cell layer. FIGS. 5B and C. Quantification of the number of Brn3b+RGCs per mm^2 in control and cKO mice 3 days after intravitreal injection of saline (FIG. 5B) or NMDA (FIG. 5C). Error bars represent SEM, * p≤0.05, n.s. non-significant; Student's t test. FIG. 5D. Analysis of Tau levels by western blot in retinal extract 24 h, 48 h or 72 h after injection of siRNA against Tau in the eye. […] FIG. 5E. […] Quantification of number of Brn3b RGC per mm^2 in control and cKO mice 72 h after injection. […]
RGCs survival was assessed by counting Brn3b-positive cells on retina flat mounts the within four square (212 um×212 um) areas around the optic nerve disc, and averaging this number per retina and calculate with the area by multiplied by the total area of square. Cell type quantification in retinal section were made by averaging the total number of positive cells for specific markers in a […] region of the central and peripheral retina on 4 different retinal sections per animal. […]

[2] = tested on: Tau::GFP fusion protein; assay: Intracellular Tau::GFP fluorescence in stable inducible HEK293 cells with proteasome or lysosome inhibitor; format: cell-based; conditions: inhibitor 25 uM for 4 h before fixation
Protocol: FIG. 7A Stable inducible cell line HEK293 that express a Tau::GFP fusion protein was transfected with Control Myc or Numb72::Myc, and the Tau::GFP expression was activated by adding Doxycycline 6 h later. The cells were fixed 48 h later and stained for Myc. FIG. 7B. The mean intensity (±SEM) of intracellular Tau::GFP fluorescence in transfected cells was quantified. Cells were treated with vehicle, MG132 (a proteasome inhibitor, 25 uM) or Chloroquine (a lysosome inhibitor, 25 uM) for 4 h before fixation and Myc staining. Quantification represents mean intensity +/− SEM, *p≤0.01; Anova 1-way test.
The potential role of the proteasome and of the lysosome on the ability of Numb to reduce Tau levels was assessed. A stable inducible cell line (HEK293) expressing a Tau::GFP fusion protein was transfected with
Numb72 or a control empty vector. The intracellular Tau::GFP levels was compared when the cells were treated with a proteasome inhibitor (MG132), a lysosome inhibitor (Chloroquine) or a control (vehicle). […] (FIGS. 7A-B).

[3] = tested on: Tau; assay: Western blot of Tau fusion protein levels in HEK293T cells co-expressing Numb isoforms; format: cell-based; conditions: 48 hours after transfection
Description: FIGS. 6A-I: Isoform Numb-72 interacts with Tau and regulates Tau level. FIG. 6A. Schematic of 4 Numb isoforms, differing with the presence or the absence of an insertion (arrowhead) in PTB domain arrowhead, and the presence or the absence of an insertion in the proline-rich region (PRR). FIG. 6B. Coimmunoprecipitation of Tau and 4 isoforms of Numb in HEK293 cells. Each Numb isoform was transfected in HEK293T cells together with a flag-tagged version of Tau and immunoprecipitation was perform 24 hours later with a flag antibody and blotted for Numb. […] FIG. 6C. Detection of Tau::GFP level in presence of 4 isoforms of Numb by western blot in HEK293. All the Numb isoforms were transfected with a Tau::GFP fusion protein in HEK293T cells and the levels of Tau::GFP was analysed by western blot 48 hours after transfection. FIG. 6D. Schematic representation of DNA construct of a human-medulloblastoma-derived cell line (DAOY) expressing human Tau fused with EGFP (Lasagna-Reeves et al., 2016). Additionally, this cell line expresses DsRed upstream of an internal ribosomal entry site (IRES), which is translated independently of the Tau-GFP protein. DsRed-IRES-Tau::EGFP expressing cells were used to assess the abundance of Tau by monitoring the Tau-GFP to DsRed fluorescence ratio. FIG. 6E. DsRed and Tau::EGF expression in Daoy cells, transfected with Myc only construct. FIGS. 6F-J. Fluorescence-activated cell sorting (FACs) analysis of the 4 Numb isoforms affected 3 days after transfection on ratio DsRed versus DsRed and GFP-positives cells compared to the control (Myc-Tag). FIG. 6K Quantification represents fold change for 5 experiments, +/− SEM, **p≤0.001; n.s. non-significant Anova 1-way test.
Numb72::Myc. HEK293T cells were transfected with Jet Prime using the following constructs Tau::Flag, Tau::GFP, Numb65, Numb66, Numb71 and Numb72.
Cells were harvested, and lysed in a NP-40 buffer (50 mm TRIS, pH 8.0, 150 mm NaCl, 1.0% NP-40 with Complete Protease Inhibitor Cocktail (Roche)). For immunoblotting, 40 μg of protein samples for in vivo blot and 10 ug for in vitro blot were loaded on a 10% acrylamide SDS-PAGE gels for separation by electrophoresis migration and then transferred onto PVDF membranes using transblot machine (Millipore). […] The primary antibody was detected with an HRP-conjugated goat anti-rabbit (1:10,000; Jackson Immunoresearch) in 0.5% dry milk in TBST. […]
To determine whether increasing the levels of Numb could affect the levels of Tau, the inventors co-expressed all isoforms of Numb together with a Tau::Venus fusion protein in HEK293T cells and analyzed the levels of Tau::Venus by western blot 48 hours after transfection.

Row | Molecule | effect of inhibitor on the ability of Numb72 to reduce Tau::GFP levels [2] | levels of Tau::Venus by western blot [3] | also measured
1 | CN[C@H](CC(=O)O)C(=O)O [NMDA, N-methyl-D-aspartate] | – | – | RGC numbers [1]: two-fold reduction of RGC numbers
2 | CC(C)C[C@@H](C=O)NC(=O)[C@H](CC(C)C)NC(=O)[C@H](CC(C)C)NC(=O)OCc1ccccc1 [MG132] (Cbz-Leu-Leu-Leu-aldehyde) | neither the proteasome inhibitor nor the lysosome inhibitor abolished the ability of Numb72 to reduce Tau::GFP levels | – | –
3 | CCN(CC)CCCC(C)Nc1ccnc2cc(Cl)ccc12 (stereo not drawn) [Chloroquine] | neither the proteasome inhibitor nor the lysosome inhibitor abolished the ability of Numb72 to reduce Tau::GFP levels | – | –
4 | B1 | – | did not affect Tau levels | –
5 | B2 | – | did not affect Tau levels | –
6 | B3 | – | significantly reduced the levels of Tau | –
